# What was measured:
# Trypanosoma brucei = test: Anti-trypanosomal activity, inhibition of T. brucei growth (ATP-bioluminescence luciferase assay); assay type: cell-based; details: read-out: IC50 against Trypanosoma brucei
# Method: The antiparasitic activities of exemplary compounds described here was studied using the anti-trypanosomal activity protocol described in: Rapp M, et al. J Med Chem 2006; 49:2096-102. […] FIG. 1 summarizes the compound inhibition of T. brucei growth. It is seen that compounds of the invention are useful in inhibiting T. brucei growth.
# Culturing of Parasites. The bloodstream form of Trypanosoma brucei 427 strain was maintained under the standard cell culture conditions (37° C., 5% CO2). The parasites were grown in complete HMI-9 medium containing 10% FBS, 10% Serum Plus and 1× Penicillin/Streptomycin. (Angew. Chem. Int. Ed. Engl. 2003, 42, 5274-5293).
# Luciferase Assay. Luciferase assay was used to measure ATP-bioluminescence in T. brucei cultured in 96-well plates at 37° C. for 48 hours. Parasites were diluted to 1.0×10^5 cells/mL in complete HMI-9 medium. One hundred microliters (100 μL) of the diluted parasites were aliquoted into sterile 96-well flat white opaque culture plates (Greiner). Each compound was serially diluted from 10 μM to 0.1 μM in DMSO and then mixed in the appropriate wells containing parasites. The treated parasites were then incubated for 48 hours at 37° C. with 5% CO2 before monitoring viability. To measure the viability of the parasites after treatment with each compound, the parasites were lysed in the wells by adding 100 μL of CellTiter-Glo™ (Promega). After lysis, the ATP bioluminescence of the 96-well plates was measured with a SpectraFluor Plus multidetection plate reader (Tecan).
# [1] = system: MDA-MB-453 human breast cancer cells; test: Soft agar colony growth, MDA-MB-453 cells; assay type: cell-based; details: Table 2
# Method: (§1) FIG. 3(A) MDA-MB-453 and (B) T47D human breast cancer cells were treated with 10 μM of various quinolines for 7 days. Base agar plates were prepared containing 0.8% agar and 0.4% agar in Ham's F12. Cells (5×10^4 cells/33 mm well) were suspended in 100 μl of Ham's F12 with 0.4% agar and plated. These plates were maintained at 37° C. for 7 days and examined for the presence of colonies. Individual colonies of 40 μm or greater were examined. […] However, PQ3 caused a 2.3-fold increase in colony growth in MDA-MB-453 cells and PQ2 caused a 2.6-fold increase in T47D colony growth compared to DMSO. FIGS. 7 and 8 show MDA-MB-453 and T47D colony growth for various concentrations of PQ1 and SA tested for 7 days. The procedures are generally as described above. The cell colony growth decreased using 10 and 100 nM PQ1 for both cell types. Colony Growth Assay: T47D human breast cancer cells were treated with PQ1. Base agar plates were prepared containing 0.8% agar and 0.4% agar in Ham's F12. Cells (5×10^4 cells/33 mm2 well) were suspended in 100 μl of Ham's F12 with 0.4% agar and plated. These plates were maintained at 37° C. for 7 days and examined for the presence of colonies. Individual colonies of 40 um or greater were examined.
# [2] = system: T47D human breast cancer cells; test: Soft agar colony growth, T47D cells; assay type: cell-based; details: for effect on breast cancer cell colony growth: Table 2
# Method: Base agar plates were prepared containing 0.8% agar and 0.4% agar in Ham's F12. Cells (5×10^4 cells/33 mm^2 well) were suspended in 100 μl of Ham's F12 with 0.4% agar and plated. These plates were maintained at 37° C. for 7 days and examined for the presence of colonies. Individual colonies of 50 μm or greater were examined. T47D cells were treated with 1, 10 and 100 nM PQ1 and SA (succinic acid) as a solvent control. Individual colonies of 50 μm or greater were examined. Statistical significance, *p<0.05, of at least three experiments
# as §1, with “types.” for “types. Colony Growth Assay: T47D human breast cancer cells were treated with PQ1. Base agar plates were prepared containing 0.8% agar and 0.4% agar in Ham's F12. Cells (5×10^4 cells/33 mm2 well) were suspended in 100 μl of Ham's F12 with 0.4% agar and plated. These plates were maintained at 37° C. for 7 days and examined for the presence of colonies. Individual colonies of 40 um or greater were examined.”
# (§2) Colony Growth Assay: T47D human breast cancer cells were treated with PQ1. Base agar plates were prepared containing 0.8% agar and 0.4% agar in Ham's F12. Cells (5×10^4 cells/33 mm2 well) were suspended in 100 μl of Ham's F12 with 0.4% agar and plated. These plates were maintained at 37° C. for 7 days and examined for the presence of colonies. Individual colonies of 40 um or greater were examined.
# Various oncogenes (e.g. ras, raf, neu, src, mos) down-regulate GJIC while several tumor suppressor genes can up-regulate GJIC. […] Cells were grown in soft agar to assess their capacity for anchorage-independent growth, which is a key feature of cell transformation due to the importance of cell-cell and cell-matrix based tumor suppression. MEC and T47D cells were treated with 10, 100, 1000, and 10000 nM PQ1 for 7 days. A graphical presentation of three experiment results is presented in log scale of PQ1 concentration. […] A 100 nM PQ1 inhibits 66% of colony growth compared to controls, without PQ1 treatment or 100 nM succinic acid.
# as §2, with “Using Soft Agar. Cells” for “Assay: T47D human breast cancer cells”, “0, 10, 100, 200 and 500 nM PQ1 for 7 days.” for “PQ1.”, “mm^2” for “mm2”, “50 μm” for “40 um”
# MDA-MB-453 cells = test: Gap junction activity (GJIC), flow cytometry of dye coupling, MDA-MB-453 cells; assay type: cell-based, human; details: MDA-MB-453; for effect on gap junction intercellular communication: Table 1, concentration not given
# Method: FIG. 4(A) MDA-MB-453 and (B) T47D cells were treated with low (500 nM) and high (10 μM) concentrations of PQs for 24 hours. Monolayers of acceptor cell population were grown on 25-cm flasks in the presence of Vibrant DiD. Vybrant DiD in acceptor cells is not able to pass through the gap junctions because of its hydrophobic property. Single cell suspensions of donor treated cells were prepared, labeled with 0.05 μg/ml calcein-AM, incubated at 37 C for 5 minutes. Quantification of dye coupling between the donor and acceptor cells was assessed by dual-excitation flow cytometry. […] Cells treated with 10 μM PQ3 have approximately 40-50% decrease in gap junction activity compared control or DMSO.
# MDA-MB-231 = test: Gap junction intercellular communication, MDA-MB-231 cells; assay type: cell-based, human; details: Table 1
# MCF-7 = test: Gap junction intercellular communication, MCF-7 cells; assay type: cell-based, human; details: Table 1
# ZR75 = test: Gap junction intercellular communication, ZR75 cells; assay type: cell-based, human; details: Table 1
# HT29 = test: Gap junction intercellular communication, HT29 colon cancer cells; assay type: cell-based; details: Table 3
# SW620 colon cancer cells = test: Gap junction activity, SW620 colon cancer cells; assay type: cell-based
# Method: However, PQ3 has an opposite effect on mammary cancer cell lines. […] A summary of PQ-mediated GJIC activity and colony growth in breast and colon cancer cells is presented in Tables 1, 2, and 3, as well as FIGS. 10-13. In FIG. 10, SW620 cells were dosed for 24 hours with PQ1 at 100, 200, 300, and 500 nM. The gap junction activity was measured as a percent of control, as previously described. It was seen that all concentrations on PQ1 increased the gap junction activity in SW620 colon cancer cells as compared to the control. In FIG. 11, the effect of PQ1 on the expression of PKCγ was studied at concentrations of 100, 200, 300 and 500 nM PQ1 for 24 hours. It is seen in FIG. 11 that PQ1 has no effect on the expression of PKCγ at the levels tested. In FIGS. 12 and 13, the effect of PQ1 on the colony growth of SW620 colon cancer cells was measured with 1-100 nM PQ1 (FIG. 12) and 10 uM PQ1 (FIG. 13).
# R28 cells = test: Dye transfer/scrape loading gap junction assay in R28 cells; assay type: cell-based, rat; details: 10 μM for 40 minutes, compared to untreated control cells
# Method: To determine the effects of the compounds of the invention on gap junctions, […] R28 cells and lucifer yellow dye and rhodamine dextran were used to study gap junction. (Das, S.; Lauer, J.; Barnett, M.; Lin, D.; Akoev, V.; Battina, S.; Hua, D. H.; Takemoto, D. J. PKCγ phosphorylates connexin50 on serine-430. A presentation at 2006 ARVO Annual Meeting, Apr. 30-May 4, 2006, Fort Lauderdale, Fla.). […] The cells were treated with different compounds as shown @ 10 μM for 40 minutes. A mixture of lucifer yellow (LY) and rhodamine dextran (RD) was added to the cells at the center of the coverslip. Two cuts across the coverslip were made to form a transient tear in the plasma membranes of the cells to permit dye transfer through gap junctions. Cells were incubated with the dye for 20 minutes, then fixed and examined by fluorescent microscopy. For quantitative analysis the extent of dye transfer was estimated by counting the number of LY and RD labeled cells in the microscopic field and graphed. […] PQ3 is useful as a drug having reduced gap junction inhibitory activity. The gap junction activity of other compounds of the invention may be tested as described herein without the use of undue experimentation.
# Gap junction activity assay. R28 cells were grown to 90% confluency on coverslips. They were treated with PQ1 at 10 μM for 40 min. A mixture of 1% each, in PBS, Lucifer yellow (LY) and Rhodamine Dextran (RD) (Molecular Probes, Eugene, Oreg.) were added to the cells at the center of the coverslip. Two cuts across the coverslip were made to form a transient tear in the plasma membranes of the cells to permit dye entry into cells. Cells were incubated with 2.5 μl of both of the dyes for 20 min, then fixed in 2.5% paraformaldehyde, washed in PBS and examined by fluorescent microscopy using a Nikon C1 confocal microscopy. For quantitation, the extent of dye transfer was calculated by counting the number of LY-labeled cells from the initial scrape with subtraction of RD-labeled cells, as a cell damage control, in the microscopic field. Four points per slide were photographed. The experiments were repeated six times, and data are means±SEM.
IC50 (Trypanosoma brucei),SMILES,effect on breast cancer cell colony growth [1],"increase in colony growth ([2]; 10 μM, 7 days, compared to DMSO)",effect on breast cancer cell colony growth [2],effect on gap junction activity (MDA-MB-453 cells; 24 hours),effect on gap junction intercellular communication (MDA-MB-453 cells),effect on gap junction intercellular communication (MDA-MB-231),effect on gap junction intercellular communication (MCF-7),effect on gap junction intercellular communication (ZR75),effect on gap junction intercellular communication (HT29),"effect on gap junction intercellular communication (SW620 colon cancer cells; Table 3, 6 uM)",block of lucifer yellow dye transfer through gap junctions (R28 cells),block of lucifer yellow dye transfer through gap junctions (R28 cells; listed as MQ),"effect on colony growth ([2]; 10 μM, 7 days)","effect on gap junction intercellular communication (SW620 colon cancer cells; Table 3, concentration not given)"
2.5 µg/mL,"COc1cc([N+](=O)[O-])c2nccc(C)c2c1Oc1cccc(C(F)(F)F)c1 [PQ2, 6-Methoxy-4-methyl-8-nitro-5-(3-trifluoromethylphenyloxy)quinoline]",No effect,2.6 fold,Increase,no significant effect,No effect,Decrease,Decrease,No effect,Increase,Increase,,,,
,"OC(c1cc(C(F)(F)F)nc2c(C(F)(F)F)cccc12)C1CCCCN1 (centres unmarked) [mefloquine, reference compound]",,,,,,,,,,,blocked dye transfer significantly,hardly any passage of the dye,,
25 µg/mL,"COc1cc([N+](=O)[O-])c(N)cc1Oc1cccc(C(F)(F)F)c1 [PQ4, 4-Amino-5-nitro-2-(3-trifluoromethylphenyloxy)anisole]",No effect,,Decrease,,No effect,Decrease,No effect,No effect,Increase,,,,inhibitory effect,No effect
